Test results published in US10544146B2, “Bicyclic compounds and their use as antibacterial agents and β-lactamase inhibitors” (priority 2011, dated 2020).

Experiments:
Format in all cases: cell-based
[1] = test system: A. baumanii JMI 2659; test: MIC, antibacterial and synergistic activity; details: substance alone
Experimental: (§1) In the Tables 10-12, compounds of the present invention were tested in combination with various antibiotics against metallo β-lactamase producing bacteria.

[2] = test system: E. cloacae JMI 36; test: MIC, antibacterial and synergistic activity; details: substance alone
Experimental: as §1

[3] = test system: E. coli ATCC 25922; test: MIC, antibacterial and synergistic activity
Experimental: as §1

[4] = test system: E. coli JMI 10767; test: MIC, antibacterial and synergistic activity; details: substance alone
Experimental: as §1

[5] = test system: E. coli JMI 2671; test: MIC, antibacterial and synergistic activity; details: substance alone
Experimental: as §1

[6] = test system: E. coli JMI 2692; test: MIC, antibacterial and synergistic activity; details: substance alone
Experimental: as §1

[7] = test system: K. pneumo JMI 2693; test: MIC, antibacterial and synergistic activity; details: substance alone
Experimental: as §1

[8] = test system: K. pneumo JMI 2697; test: MIC, antibacterial and synergistic activity; details: substance alone
Experimental: as §1

[9] = test system: K. pneumo JMI 2699; test: MIC, antibacterial and synergistic activity; details: substance alone
Experimental: as §1

[10] = test system: P. aerug JMI 149; test: MIC, antibacterial and synergistic activity; details: substance alone
Experimental: as §1

[11] = test system: E. coli JMI 4103; test: MIC, antibacterial and synergistic activity; details: substance alone
[12] = test system: E. coli JMI 4080; test: MIC, antibacterial and synergistic activity; details: substance alone
[13] = test system: E. coli JMI 2665; test: MIC, antibacterial and synergistic activity; details: substance alone
[14] = test system: K. pneumo JMI 4109; test: MIC, antibacterial and synergistic activity; details: substance alone
[15] = test system: K. pneumo JMI 2673; test: MIC, antibacterial and synergistic activity; details: substance alone
[16] = test system: K. pneumo JMI 2674; test: MIC, antibacterial and synergistic activity; details: substance alone
[17] = test system: K. pneumo JMI 4088; test: MIC, antibacterial and synergistic activity; details: substance alone
[18] = test system: K. pneumo JMI 4106; test: MIC, antibacterial and synergistic activity; details: substance alone
[19] = test system: K. pneumo JMI 2681; test: MIC, antibacterial and synergistic activity; details: substance alone
[20] = test system: P. aerug JMI 2686; test: MIC, antibacterial and synergistic activity; details: substance alone
[21] = test system: E. coli JMI 10768; test: MIC, antibacterial and synergistic activity; details: substance alone
[22] = test system: E. coli JMI 10770; test: MIC, antibacterial and synergistic activity; details: substance alone
[23] = test system: E. coli JMI 11103; test: MIC, antibacterial and synergistic activity; details: substance alone
[24] = test system: metallo β-lactamase producing bacteria; test: MIC in combination with various antibiotics against metallo β-lactamase producing bacteria (Tables 10-12); details: substance alone
Experimental: as §1

CC(C)(O/N=C(\C(=O)N[C@@H]1C(=O)N2C(C(=O)[O-])=C(C[n+]3ccccc3)CS[C@H]12)c1csc(N)n1)C(=O)O [Ceftazidime, ceftazidime]
MIC alone ([1]; A. baumanii JMI 2659, Ges-14 (Cpase)): 512 µg/mL
MIC alone ([1]; A. baumanii JMI 2659, enzyme Ges-14 (Cpase)): 512 µg/mL
MIC alone ([2]; E. cloacae JMI 36, P99): 128 µg/mL
MIC alone ([2]; E. cloacae JMI 36, enzyme P99): 128 µg/mL
MIC alone ([3]; E. coli ATCC 25922, enzyme Wt; substance alone): 0.25 µg/mL
MIC alone ([3]; E. coli ATCC 25922; enzyme Wt; substance alone): 0.25 µg/mL
MIC alone ([4]; E. coli JMI 10767, Wt): ≤1 µg/mL
MIC alone ([4]; E. coli JMI 10767, enzyme Wt): ≤1 µg/mL
MIC alone ([5]; E. coli JMI 2671, VIM-19 (Cpase)): 64 µg/mL
MIC alone ([5]; E. coli JMI 2671, enzyme VIM-19 (Cpase)): 64 µg/mL
MIC alone ([6]; E. coli JMI 2692, NDM-1, TEM-1, CTX-M-15): >512 µg/mL
MIC alone ([6]; E. coli JMI 2692, enzyme NDM-1, TEM-1, CTX-M-15): >512 µg/mL
MIC alone ([7]; K. pneumo JMI 2693, NDM-1 (Cpase)): >512 µg/mL
MIC alone ([7]; K. pneumo JMI 2693, enzyme NDM-1 (Cpase)): >512 µg/mL
MIC alone ([8]; K. pneumo JMI 2697, IMP-4 (Cpase)): >512 µg/mL
MIC alone ([8]; K. pneumo JMI 2697, enzyme IMP-4 (Cpase)): >512 µg/mL
MIC alone ([9]; K. pneumo JMI 2699, VIM-1, CTX-M3): >512 µg/mL
MIC alone ([9]; K. pneumo JMI 2699, enzyme VIM-1, CTX-M3): >512 µg/mL
MIC alone ([10]; P. aerug JMI 149, Bla+++D+): 256 µg/mL
MIC alone ([10]; P. aerug JMI 149, enzyme Bla+++D+): 256 µg/mL
MIC alone ([11]; E. coli JMI 4103, KPC-2, Tem-1, CMY-Type): >512 µg/mL
MIC alone ([11]; E. coli JMI 4103, enzyme KPC-2, Tem-1, CMY-Type): >512 µg/mL
MIC alone ([12]; E. coli JMI 4080, Tem-10): 64 µg/mL
MIC alone ([12]; E. coli JMI 4080, enzyme Tem-10): 64 µg/mL
MIC alone ([13]; E. coli JMI 2665, CMY-2 (Plasmid Cpase)): 8 µg/mL
MIC alone ([13]; E. coli JMI 2665, enzyme CMY-2 (Plasmid Cpase)): 8 µg/mL
MIC alone ([14]; K. pneumo JMI 4109, SHV-1, SHV-12): 8 µg/mL
MIC alone ([14]; K. pneumo JMI 4109, enzyme SHV-1, SHV-12): 8 µg/mL
MIC alone ([15]; K. pneumo JMI 2673, CTX-M14 (ESBL)): 32 µg/mL
MIC alone ([15]; K. pneumo JMI 2673, enzyme CTX-M14 (ESBL)): 32 µg/mL
MIC alone ([16]; K. pneumo JMI 2674, CTX-M15 (ESBL)): 512 µg/mL
MIC alone ([16]; K. pneumo JMI 2674, enzyme CTX-M15 (ESBL)): 512 µg/mL
MIC alone ([17]; K. pneumo JMI 4088, KPC-3 (Cpase)): >512 µg/mL
MIC alone ([17]; K. pneumo JMI 4088, enzyme KPC-3 (Cpase)): >512 µg/mL
MIC alone ([18]; K. pneumo JMI 4106, KPC-3, TEM-1, SHV-12, SHV-141): >512 µg/mL
MIC alone ([18]; K. pneumo JMI 4106, enzyme KPC-3, TEM-1, SHV-12, SHV-141): >512 µg/mL
MIC alone ([19]; K. pneumo JMI 2681, Oxa-48 (Cpase)): 512 µg/mL
MIC alone ([19]; K. pneumo JMI 2681, enzyme Oxa-48 (Cpase)): 512 µg/mL
MIC alone ([20]; P. aerug JMI 2686, KPC-2 (Cpase)): 512 µg/mL
MIC alone ([20]; P. aerug JMI 2686, enzyme KPC-2 (Cpase)): 512 µg/mL
MIC alone ([21]; E. coli JMI 10768, CTX-M15 (Weak ESBL)): 8 µg/mL
MIC alone ([21]; E. coli JMI 10768, enzyme CTX-M15 (Weak ESBL)): 8 µg/mL
MIC alone ([22]; E. coli JMI 10770, CTX-M15 (Hyper ESBL)): 64 µg/mL
MIC alone ([22]; E. coli JMI 10770, enzyme CTX-M15 (Hyper ESBL)): 64 µg/mL
MIC alone ([23]; E. coli JMI 11103, CTX-M15 (Intermediate ESBL)): 32 µg/mL
MIC alone ([23]; E. coli JMI 11103, enzyme CTX-M15 (Intermediate ESBL)): 32 µg/mL
MIC alone ([24]; Citrobacter freundii isolate 49469, NDM-1): >256 µg/mL
MIC alone ([24]; Enterobacter aerogenes isolate 8397, VIM-1): >256 µg/mL
MIC alone ([24]; Enterobacter aerogenes isolate 47683, VIM-12): 256 µg/mL
MIC alone ([24]; Enterobacter cloacae isolate 4, VIM-6): 256 µg/mL
MIC alone ([24]; Enterobacter cloacae isolate 10, IMP-26): >256 µg/mL
MIC alone ([24]; Enterobacter cloacae isolate 25, IMP-4): >256 µg/mL
MIC alone ([24]; Enterobacter cloacae isolate 1068, VIM-2): 128 µg/mL
MIC alone ([24]; Enterobacter cloacae isolate 1280, VIM-5): 64 µg/mL
MIC alone ([24]; Enterobacter cloacae isolate 1471, VIM-1): >256 µg/mL
MIC alone ([24]; Enterobacter cloacae isolate 1874, IMP-21): 32 µg/mL
MIC alone ([24]; Enterobacter cloacae isolate 3686, IMP-1): >256 µg/mL
MIC alone ([24]; Enterobacter cloacae isolate 53477, NDM-1): >256 µg/mL
MIC alone ([24]; Escherichia coli isolate 13, IMP-1): 256 µg/mL
MIC alone ([24]; Escherichia coli isolate 17, NDM-1): >256 µg/mL
MIC alone ([24]; Escherichia coli isolate 49, NDM-1): >256 µg/mL
MIC alone ([24]; Escherichia coli isolate 53749, NDM-1): >256 µg/mL
MIC alone ([24]; Klebsiella oxytoca isolate 24825, IMP-26): >256 µg/mL
MIC alone ([24]; Klebsiella oxytoca isolate 31141, VIM-23): 128 µg/mL
MIC alone ([24]; Klebsiella pneumoniae isolate 16, VIM-5): >256 µg/mL
MIC alone ([24]; Klebsiella pneumoniae isolate 38, NDM-1): >256 µg/mL
MIC alone ([24]; Providencia stuartii isolate 26582, VIM-1): >256 µg/mL
MIC alone ([24]; Serratia marcescens isolate 35, IMP-4): 64 µg/mL
MIC alone ([24]; Serratia marcescens isolate 36098, IMP-19): 128 µg/mL
